Results: PubChem BioAssay AID222 (DTP/NCI, 2004)
Values joined by “and” are separate entries in the source; they are usually repeats but may differ in a detail not shown here. Equal values may be shown once. Toxic doses and inconclusive results are not listed.

Tested on: C57BL/6 mice, intracerebral ependymoblastoma, median survival T/C
Assay: NCI In Vivo Anticancer Drug Screen. Data for tumor model Ependymoblastoma (intracerebral) in C57BL/6 mice
Settings: endpoint: median survival time, higher = longer survival
Procedure: The antitumor activity of compounds was measured in mice bearing transplantable tumors. Survival or tumor size were measured and the results are expressed as the measurement made in the treated group (T) divided by the measurement made in the vehicle treated control group (C). The tumor model used in this assay is Ependymoblastoma (intracerebral) in C57BL/6 mice

For `O=NN(CCCl)C(=O)NC1CCC(=O)NC1=O` (stereo unspecified), the T/C (dose: 0.5 mg/kg/injection, schedule: Q01DX005 (ip), vehicle: Klucel (hydroxypropylcellulose) (HPC)) was 103 % of control, the T/C (dose: 0.5 mg/kg/injection, schedule: Q01DX005 (ip), vehicle: suspension in saline) was 118 % of control and the T/C (dose: 0.62 mg/kg/injection, schedule: Q01DX001 (ip), vehicle: other) was 100 % of control. The T/C (dose: 1.0 mg/kg/injection, schedule: Q01DX005 (ip), vehicle: Klucel (hydroxypropylcellulose) (HPC)) was 100 % of control, the T/C (dose: 1.0 mg/kg/injection, schedule: Q01DX005 (ip), vehicle: suspension in saline) was 114 % of control and the T/C (dose: 1.25 mg/kg/injection, schedule: Q01DX001 (ip), vehicle: other) was 101 % of control. For the same molecule, the T/C (dose: 1.75 mg/kg/injection, schedule: Q01DX001 (ip), vehicle: other) was 104 % of control, the T/C (dose: 2.0 mg/kg/injection, schedule: Q#A X002 (ip), vehicle: saline) was 100 % of control and 111 % of control and the T/C (dose: 2.5 mg/kg/injection, schedule: Q01DX001 (ip), vehicle: other) was 100 % of control. For the same molecule, the T/C (dose: 3.5 mg/kg/injection, schedule: Q01DX001 (ip), vehicle: other) was 102 % of control and 104 % of control, the T/C (dose: 3.5 mg/kg/injection, schedule: Q01DX001 (ip), vehicle: saline with Tween-80) was 95 % of control and the T/C (dose: 4.0 mg/kg/injection, schedule: Q01DX001 (ip), vehicle: saline with Tween-80) was 106 % of control. The T/C (dose: 4.0 mg/kg/injection, schedule: Q01DX005 (ip), vehicle: Klucel (hydroxypropylcellulose) (HPC)) was 290 % of control, the T/C (dose: 4.0 mg/kg/injection, schedule: Q01DX005 (ip), vehicle: suspension in saline) was 298 % of control and the T/C (dose: 4.0 mg/kg/injection, schedule: Q#A X002 (ip), vehicle: saline) was 98 % of control and 99 % of control. For the same molecule, the T/C (dose: 5.0 mg/kg/injection, schedule: Q01DX001 (ip), vehicle: other) was 119 % of control, the T/C (dose: 5.0 mg/kg/injection, schedule: Q01DX001 (oral), vehicle: other) was 161 % of control and the T/C (dose: 7.0 mg/kg/injection, schedule: Q01DX001 (ip), vehicle: other) was 113 % of control and 119 % of control. For the same molecule, the T/C (dose: 8.0 mg/kg/injection, schedule: Q01DX001 (ip), vehicle: saline with Tween-80) was 106 % of control, the T/C (dose: 8.0 mg/kg/injection, schedule: Q01DX005 (ip), vehicle: Klucel (hydroxypropylcellulose) (HPC)) was 281 % of control and the T/C (dose: 8.0 mg/kg/injection, schedule: Q#A X002 (ip), vehicle: saline) was 102 % of control. The T/C (dose: 10.0 mg/kg/injection, schedule: Q01DX001 (ip), vehicle: other) was 162 % of control, the T/C (dose: 10.0 mg/kg/injection, schedule: Q01DX001 (oral), vehicle: other) was 210 % of control and the T/C (dose: 10.0 mg/kg/injection, schedule: Q07DX003 (ip), vehicle: saline) was 318 % of control. For the same molecule, the T/C (dose: 14.0 mg/kg/injection, schedule: Q01DX001 (ip), vehicle: saline with Tween-80) was 102 % of control, the T/C (dose: 16.0 mg/kg/injection, schedule: Q01DX001 (ip), vehicle: saline with Tween-80) was 104 % of control and the T/C (dose: 16.0 mg/kg/injection, schedule: Q01DX001 (oral), vehicle: Klucel (hydroxypropylcellulose) (HPC)) was 106 % of control. The T/C (dose: 16.0 mg/kg/injection, schedule: Q#A X002 (ip), vehicle: saline) was 102 % of control and 112 % of control, the T/C (dose: 20.0 mg/kg/injection, schedule: Q01DX001 (oral), vehicle: other) was 90 % of control and the T/C (dose: 20.0 mg/kg/injection, schedule: Q07DX003 (ip), vehicle: saline) was 117 % of control. The T/C (dose: 28.0 mg/kg/injection, schedule: Q01DX001 (ip), vehicle: other) was 100 % of control and 103 % of control, the T/C (dose: 28.0 mg/kg/injection, schedule: Q01DX001 (ip), vehicle: saline with Tween-80) was 93 % of control and the T/C (dose: 32.0 mg/kg/injection, schedule: Q01DX001 (ip), vehicle: saline with Tween-80) was 105 % of control. For the same molecule, the T/C (dose: 32.0 mg/kg/injection, schedule: Q01DX001 (oral), vehicle: Klucel (hydroxypropylcellulose) (HPC)) was 102 % of control, the T/C (dose: 32.0 mg/kg/injection, schedule: Q#A X002 (ip), vehicle: saline) was 100 % of control and the T/C (dose: 56.0 mg/kg/injection, schedule: Q01DX001 (ip), vehicle: other) was 88 % of control. For the same molecule, the T/C (dose: 56.0 mg/kg/injection, schedule: Q01DX001 (ip), vehicle: saline with Tween-80) was 93 % of control, the T/C (dose: 64.0 mg/kg/injection, schedule: Q01DX001 (ip), vehicle: saline with Tween-80) was 109 % of control and the T/C (dose: 64.0 mg/kg/injection, schedule: Q01DX001 (oral), vehicle: Klucel (hydroxypropylcellulose) (HPC)) was 100 % of control. For the same molecule, the T/C (dose: 128.0 mg/kg/injection, schedule: Q01DX001 (oral), vehicle: Klucel (hydroxypropylcellulose) (HPC)) was 102 % of control and the T/C (dose: 256.0 mg/kg/injection, schedule: Q01DX001 (oral), vehicle: Klucel (hydroxypropylcellulose) (HPC)) was 104 % of control.
